Values belong to the compound of their own block, whether it stands above or below them.
Experiments:
[1] = tested on: activated partial thromboplastin time; assay: Activated partial thromboplastin time; assay type: in vivo, human; conditions: for LS mean aPTT at 2 h after dosing: ANCOVA; for Activated partial thromboplastin time A max / Activated partial thromboplastin time A min / Activated partial thromboplastin time AUEτ: mean ± SD; for Activated partial thromboplastin time T max: median (minimum, maximum)
[2] = Plasma pharmacokinetics in healthy subjects; conditions: for T max: median (minimum, maximum); for AUC: AUCτ, 24 h dosing interval; for Cmax: C max, healthy subjects
Safety assessment = assay type: in vivo, human; conditions: healthy adult subjects
thrombin generation = assay: Technothrombin thrombin generation assay; assay type: in vivo, human; conditions: for Endogenous thrombin potential A max / Endogenous thrombin potential A min / Lag time A max / Lag time A min / Peak thrombin A max / Peak thrombin A min / Time to peak A max / Time to peak A min / Velocity A max / Velocity A min: mean ± SD
[3] = cited from earlier work
[4] = day 4, edoxaban after switching from dabigatran etexilate (treatment 3)
[5] = day 4, edoxaban after switching from rivaroxaban (treatment 2)
[6] = day 4, edoxaban alone (treatment 1)
[7] = edoxaban after switching from dabigatran etexilate, day 4 (treatment 3)
[8] = edoxaban after switching from rivaroxaban, day 4 (treatment 2)
[9] = edoxaban alone, day 1 (treatment 1)
[10] = edoxaban alone, day 4 (treatment 1)

Activated partial thromboplastin time T max [1, 4]: 1.00 (0.50, 3.00) h | Activated partial thromboplastin time T max [1, 5]: 1.00 (0.50, 4.00) h | Activated partial thromboplastin time T max [1, 6]: 1.50 (0.50, 4.00) h | T max ([2]; edoxaban day 4 after switching from dabigatran etexilate (treatment 3)): 1.00 (0.50, 3.00) h | T max ([2]; edoxaban day 4 after switching from rivaroxaban (treatment 2)): 1.00 (0.50, 2.00) h | Tmax ([2]; human, in vivo, 60 mg): 1 h | AUC ([2]; human, in vivo, 60 mg, edoxaban alone, day 1 (treatment 1), mean ± SD): 1780 ± 319 ng·h/mL | AUC ([2]; human, in vivo, 60 mg, edoxaban alone, day 4 (treatment 1), mean ± SD): 1990 ± 403 ng·h/mL | AUC ([2]; human, in vivo, 60 mg, edoxaban day 4 after switching from dabigatran etexilate (treatment 3), mean ± SD): 1680 ± 475 ng·h/mL | AUC ([2]; human, in vivo, 60 mg, edoxaban day 4 after switching from rivaroxaban (treatment 2), mean ± SD): 1740 ± 353 ng·h/mL | Cmax ([2]; human, in vivo, 60 mg, edoxaban 60 mg on day 4 after switching from dabigatran etexilate 150 mg twice daily for 3 days (treatment 3), mean ± SD): 280 ± 124 ng/mL | Cmax ([2]; human, in vivo, 60 mg, edoxaban 60 mg on day 4 after switching from rivaroxaban 20 mg once daily for 3 days (treatment 2), mean ± SD): 288 ± 113 ng/mL | Cmax ([2]; human, in vivo, 60 mg, edoxaban 60 mg once daily alone, day 1 (treatment 1), mean ± SD): 309 ± 97.2 ng/mL | Cmax ([2]; human, in vivo, 60 mg, edoxaban 60 mg once daily alone, day 4 (treatment 1), mean ± SD): 303 ± 87.7 ng/mL | concentration at 1 day ([2]; human, in vivo, 60 mg, C trough, edoxaban alone, day 1 (treatment 1), mean ± SD): 14 ± 5.44 ng/mL | concentration at 4 day ([2]; human, in vivo, 60 mg, C trough, edoxaban alone, day 4 (treatment 1), mean ± SD): 15.5 ± 3.98 ng/mL | concentration at 4 day ([2]; human, in vivo, 60 mg, C trough, edoxaban day 4 after switching from dabigatran etexilate (treatment 3), mean ± SD): 12.8 ± 4.13 ng/mL | concentration at 4 day ([2]; human, in vivo, 60 mg, C trough, edoxaban day 4 after switching from rivaroxaban (treatment 2), mean ± SD): 13.4 ± 5 ng/mL
Structure (SMILES): CN1CCc2nc(C(=O)N[C@@H]3C[C@@H](C(=O)N(C)C)CC[C@@H]3NC(=O)C(=O)Nc3ccc(Cl)cn3)sc2C1 [Edoxaban, edoxaban]
LS mean aPTT at 2 h after dosing ([1]; day 4, after switching from dabigatran etexilate to edoxaban (treatment 3)): 47.6 s | Activated partial thromboplastin time A max [1, 4]: 50.8 ± 8.92 s | Activated partial thromboplastin time A min [1, 4]: 30.0 ± 2.20 s | Activated partial thromboplastin time AUEτ [1, 4]: 863 ± 87.3 s·h | Activated partial thromboplastin time A max [1, 5]: 36.5 ± 3.94 s | Activated partial thromboplastin time A min [1, 5]: 28.4 ± 2.13 s | Activated partial thromboplastin time AUEτ [1, 5]: 738 ± 58.6 s·h | LS mean aPTT at 2 h after dosing [1, 6]: 35.0 s | Activated partial thromboplastin time A max [1, 6]: 35.9 ± 3.15 s | Activated partial thromboplastin time A min [1, 6]: 27.7 ± 1.70 s | Activated partial thromboplastin time AUEτ [1, 6]: 725 ± 48.8 s·h | time to peak effect on aPTT ([1]; edoxaban alone (treatment 1), return to baseline by 24 h): 1 to 2 h | tolerability (Safety assessment): well tolerated | ETP Amax (thrombin generation; day 4, continual edoxaban treatment (treatment 1)): 3644 ± 434 mN·min | Endogenous thrombin potential A max (thrombin generation; [7]): 3338 ± 575 nM·min | Endogenous thrombin potential A min (thrombin generation; [7]): 1239 ± 828 nM·min | Lag time A max (thrombin generation; [7]): 55.3 ± 16.2 min | Lag time A min (thrombin generation; [7]): 20.5 ± 3.60 min | Peak thrombin A max (thrombin generation; [7]): 302 ± 77.0 nM | Peak thrombin A min (thrombin generation; [7]): 48.9 ± 25.2 nM | Time to peak A max (thrombin generation; [7]): 74.0 ± 12.4 min | Time to peak A min (thrombin generation; [7]): 27.5 ± 7.94 min | Velocity A max (thrombin generation; [7]): 46.5 ± 25.7 nM/min | Velocity A min (thrombin generation; [7]): 2.13 ± 1.35 nM/min | Endogenous thrombin potential A max (thrombin generation; [8]): 3680 ± 462 nM·min | Endogenous thrombin potential A min (thrombin generation; [8]): 1506 ± 798 nM·min | Lag time A max (thrombin generation; [8]): 39.9 ± 9.96 min | Lag time A min (thrombin generation; [8]): 15.8 ± 3.54 min | Peak thrombin A max (thrombin generation; [8]): 324 ± 123 nM | Peak thrombin A min (thrombin generation; [8]): 49.2 ± 31.9 nM | Time to peak A max (thrombin generation; [8]): 59.4 ± 14.6 min | Time to peak A min (thrombin generation; [8]): 22.0 ± 5.15 min | Velocity A max (thrombin generation; [8]): 67.4 ± 46.6 nM/min | Velocity A min (thrombin generation; [8]): 3.04 ± 2.88 nM/min | Endogenous thrombin potential A max (thrombin generation; [9]): 3635 ± 432 nM·min | Endogenous thrombin potential A min (thrombin generation; [9]): 1520 ± 754 nM·min | Lag time A max (thrombin generation; [9]): 38.3 ± 8.59 min | Lag time A min (thrombin generation; [9]): 15.8 ± 2.25 min | Peak thrombin A max (thrombin generation; [9]): 323 ± 98.1 nM | Peak thrombin A min (thrombin generation; [9]): 45.7 ± 25.5 nM | Time to peak A max (thrombin generation; [9]): 58.6 ± 12.6 min | Time to peak A min (thrombin generation; [9]): 22.2 ± 4.13 min | Velocity A max (thrombin generation; [9]): 61.4 ± 31.3 nM/min | Velocity A min (thrombin generation; [9]): 2.62 ± 1.92 nM/min | Endogenous thrombin potential A max (thrombin generation; [10]): 3644 ± 434 nM·min | Endogenous thrombin potential A min (thrombin generation; [10]): 1474 ± 755 nM·min | Lag time A max (thrombin generation; [10]): 37.8 ± 7.09 min | Lag time A min (thrombin generation; [10]): 16.9 ± 2.41 min | Peak thrombin A max (thrombin generation; [10]): 315 ± 90.6 nM | Peak thrombin A min (thrombin generation; [10]): 43.4 ± 25.1 nM | Time to peak A max (thrombin generation; [10]): 58.5 ± 12.2 min | Time to peak A min (thrombin generation; [10]): 23.7 ± 4.29 min | Velocity A max (thrombin generation; [10]): 58.4 ± 31.9 nM/min | Velocity A min (thrombin generation; [10]): 2.40 ± 1.89 nM/min | oral bioavailability [3]: approximately 62% | terminal elimination half-life [3]: 10 to 14 h | time to peak plasma concentration and peak antithrombotic effect ([3]; oral): 1 to 2 h

Structure (SMILES): CCCCCCOC(=O)NC(=N)c1ccc(NCc2nc3cc(C(=O)N(CCC(=O)OCC)c4ccccn4)ccc3n2C)cc1 [dabigatran etexilate]
tolerability (Safety assessment): well tolerated

Structure (SMILES): O=C(NC[C@H]1CN(c2ccc(N3CCOCC3=O)cc2)C(=O)O1)c1ccc(Cl)s1 [rivaroxaban]
tolerability (Safety assessment): well tolerated
